Measurements reported in patent US20180305334A1, “COMPOUNDS, COMPOSITIONS AND METHODS OF USE AGAINST STRESS GRANULES” (Aquinnah Pharmaceuticals, Inc., priority 2015, published 2018).

system: TDP-43 aggregation in PC12 cells stably expressing TDP-43^Q331K::eGFP; assay: In vitro efficacy assay, TDP-43 aggregation concentration-response; format: cell-based; conditions: Rattus norvegicus, PC-12, inhibition of TDP-43 aggregation; PC12 TDP-43^Q331K::eGFP, 1 hour pre-treatment, 15 μM sodium arsenite for 23 hours; 10-point dose response
In short: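 PC12 cells stably expressing TDP-43^Q331K::eGFP pre-treated with compound for 1 h, then stressed with 15 μM sodium arsenite for 23 h. Fluorescence microscopy scored the fraction of GFP-positive cells carrying TDP-43 aggregates across compound concentrations.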

| IC50 [µM] | SMILES |
| --- | --- |
| 1.5 to 4 | CC(C)N(CC1CCN(Cc2ccccc2)CC1)C(=O)c1cc2ccccc2[nH]1 [compound 285] |
| 1.5 to 4 | CCN(CC1CCN(Cc2ccccc2Cl)CC1)C(=O)c1cc2ccccc2[nH]1 [compound 286] |
| 4 to 7 | CCN(CC1CCN(Cc2ccccc2OC)CC1)C(=O)c1cc2ccccc2[nH]1 [compound 287] |
| > 10 | CCN(CC1CCN(Cc2ccc(F)cc2)CC1)C(=O)c1cc2ccccc2[nH]1 [compound 290] |
| 1.5 to 4 | CCN(CC1CCN(Cc2ccccc2)CC1)C(=O)c1cc2ccccc2[nH]1 [compound 291] |
| < 1.5 | CCN(CC1CCCN(C(C)(C)Cc2cccc(Cl)c2)C1)C(=O)c1cc2ccccc2[nH]1 (stereo not shown) [compound 314] |
| < 1.5 | CCN(CC1CCCN(C(C)(C)Cc2cccc(OC(F)F)c2)C1)C(=O)c1cc2cc(OC(F)F)ccc2[nH]1 (stereo not shown) [compound 315] |
| 1.5 to 4 | CCN(CC1CCCN(C(C)(C)c2cc3ccccc3o2)C1)C(=O)c1cc2ccccc2[nH]1 (stereo not shown) [compound 317] |
| > 10 | CCN(CC1CCNCC1)C(=O)c1cc2cc(OC(F)F)ccc2[nH]1 [compound 402] |
| > 10 | CCN(CC1CCCNC1)C(=O)c1cc2cc(OC)c(OC)cc2[nH]1 (stereo not shown) [compound 415] |
| 4 to 7 | CCN(CC1CCCNC1)C(=O)c1cc2c(F)cccc2[nH]1 (stereo not shown) [compound 421] |
| > 10 | CCN(CC1CCCNC1)C(=O)c1cc2cc(OC(F)F)ccc2[nH]1 (stereo not shown) [compound 425] |

Further lines, the compound ahead of its results:

| SMILES | IC50 [µM] |
| --- | --- |
| CCN(CC1CCN(Cc2ccc(OC)cc2)CC1)C(=O)c1cc2ccccc2[nH]1 [compound 288] | < 1.5 |
| CCN(CC1CCN(Cc2ccc(Cl)cc2)CC1)C(=O)c1cc2ccccc2[nH]1 [compound 289] | > 10 |
| COc1cccc(CN2CCC(CNC(=O)c3cc4ccccc4[nH]3)CC2)c1 [compound 292] | > 10 |
| O=C(NCC1CCN(Cc2ccccc2Cl)CC1)c1cc2ccccc2[nH]1 [compound 293] | > 10 |
| O=C(NCC1CCN(Cc2ccc(F)cc2)CC1)c1cc2ccccc2[nH]1 [compound 294] | > 10 |
| O=C(NCC1CCN(Cc2ccccc2)CC1)c1cc2ccccc2[nH]1 [compound 295] | 4 to 7 |
| O=C(c1cc2ccccc2[nH]1)N(CC1CCN(CCc2ccccc2)CC1)CC(F)(F)F [compound 305] | < 1.5 |
| O=C(c1cc2ccccc2[nH]1)N(CC1CCN(CCc2cccc(F)c2)CC1)CC(F)(F)F [compound 306] | < 1.5 |
| COc1cccc(CCN2CCC(CN(CC(F)(F)F)C(=O)c3cc4ccccc4[nH]3)CC2)c1 [compound 307] | < 1.5 |
| CCN(CC1CCN(Cc2cccc(OC(F)(F)F)c2)CC1)C(=O)c1cc2cc(OC(F)(F)F)ccc2[nH]1 [compound 308] | > 10 |
| CCN(CC1CCN(Cc2ccc(OC(F)(F)F)cc2)CC1)C(=O)c1cc2cc(OC(F)(F)F)ccc2[nH]1 [compound 309] | > 10 |
| CCN(CC1CCN(Cc2cccc(OC(F)F)c2)CC1)C(=O)c1cc2cc(OC(F)F)ccc2[nH]1 [compound 310] | 4 to 7 |
| CCN(CC1CCN(Cc2ccc(OC(F)F)cc2)CC1)C(=O)c1cc2cc(OC(F)F)ccc2[nH]1 [compound 311] | 7 to 9.9 |
| CCN(CC1CCCN(C(C)(C)Cc2cccc(OC)c2)C1)C(=O)c1cc2ccccc2[nH]1 (stereo not shown) [compound 312] | 1.5 to 4 |
| CCN(CC1CCNCC1)C(=O)c1cc2cc(OC)ccc2[nH]1 [compound 400] | > 10 |
| CCN(CC1CCNCC1)C(=O)c1cc2cc(OC(F)(F)F)ccc2[nH]1 [compound 401] | 4 to 7 |
| CCN(CC1CCN(Cc2ccc(Cl)cc2)CC1)C(=O)c1cc2cc(OC)ccc2[nH]1 [compound 403] | 1.5 to 4 |
| CCN(CC1CCN(Cc2ccc(OC)cc2)CC1)C(=O)c1cc2cc(OC)ccc2[nH]1 [compound 404] | < 1.5 |
| CCN(CC1CCCNC1)C(=O)c1cc2cc(F)ccc2[nH]1 (stereo not shown) [compound 414] | > 10 |
| CCN(CC1CCCNC1)C(=O)c1cc2c(Cl)cc(Cl)cc2[nH]1 (stereo not shown) [compound 416] | > 10 |
| CCN(CC1CCCNC1)C(=O)c1cc2ccc(C)cc2[nH]1 (stereo not shown) [compound 417] | > 10 |
| CCN(CC1CCCNC1)C(=O)c1cc2cccc(F)c2[nH]1 (stereo not shown) [compound 418] | > 10 |
| CCN(CC1CCCNC1)C(=O)c1cc2ccc(OC)cc2[nH]1 (stereo not shown) [compound 419] | > 10 |
| CCN(CC1CCCNC1)C(=O)c1cc2cc(Cl)ccc2[nH]1 (stereo not shown) [compound 420] | > 10 |
| CCN(CC1CCCNC1)C(=O)c1cc2c(OC)cccc2[nH]1 (stereo not shown) [compound 422] | > 10 |
| CCN(CC1CCCNC1)C(=O)c1cc2ccc(Cl)cc2[nH]1 (stereo not shown) [compound 423] | < 1.5 |
| CCN(CC1CCCNC1)C(=O)c1cc2cc(OCc3ccccc3)ccc2[nH]1 (stereo not shown) [compound 424] | 4 to 7 |
| CCN(CC1CCCNC1)C(=O)c1cc2cc(OC(F)(F)F)ccc2[nH]1 (stereo not shown) [compound 426] | > 10 |

same assay, conditions: inhibition of TDP-43 aggregation; PC12 TDP-43^Q331K::eGFP, 1 hour pre-treatment, 15 μM sodium arsenite for 23 hours; 10-point dose response

| IC50 [µM] | SMILES |
| --- | --- |
| > 10 | CCN(CC1CCCN(C(C)(C)Cc2cccc(OC)c2)C1)C(=O)c1cc2cc(OC)ccc2[nH]1 (stereo not shown) [compound 313] |
| 4 to 7 | CCN(CC1CCCN(C(C)(C)Cc2cccc(OC(F)(F)F)c2)C1)C(=O)c1cc2cc(OC(F)(F)F)ccc2[nH]1 (stereo not shown) [compound 316] |

| SMILES | IC50 [µM] |
| --- | --- |
| CCN(CC1CCN(CC(C)(C)c2cc3ccccc3o2)CC1)C(=O)c1cc2ccccc2[nH]1 [compound 318] | < 1.5 |
